Measured values taken from patent publication US8088772B2, “Sulfonamides and their use as a medicament” (The Genetics Company, Inc., priority 2006, dated 2012).

What was measured:
Wnt pathway = assay: Cell Assay (CA): inhibition of Wnt activity in cancer cells, Tcf reporter gene; assay type: cell-based; conditions: inhibition class in the Cell Assay
Source text: Inhibition of Wnt Activity in Cancer Cells
The effect of β-catenin/BCL9 inhibitors identified in the ELISA-based protein-protein interaction assay on the Wnt pathway can be evaluated in a cell culture system using a reporter gene responsive to the Tcf/Lef family of transcription factors or by quantitative analysis of Wnt target genes in appropriate cell lines.
A reporter gene is a construct which comprises a readily detectable or assayable gene such β-galactosidase, green fluorescent protein, chloramphenicol acetyltransferase or luciferase, linked in cis to a transcription factor response element and a minimal promoter. Depending on the expression vectors used, this protocol can be applied, e.g. for mammalian as well as for Drosophila cell lines. For instance, colon cancer cells with constitutively active Wnt pathway like DLD-1 or SW620 (ATCC) are a well suitable system. Hereby, a Tcf-4 driven luciferase reporter plasmid (i.e. TOP-FLASH, Upstate biotechnology, New York, USA) is transiently or stably transfected into cells known in the art. Any means for introducing genetic material into cells can be used, including but not limited to infection, electroporation or transfection. For instance, to introduce DNA into DLD-1 cells, a lipofection agent like the Lipofectamine transfection reagent (Life Technologies, Inc.) can be used. By transient transfection protocols, a second reporter gene, e.g. the renilla luciferase reporter plasmid pRL-SV40 (Promega Corporation, Madison USA), needs to be co-transfected to normalize for transfection efficiency. Drugs are added to the media 24 h after trans-fection (transient transfection) or 24 h after seeding of the cells (stably transfected cells). Cell extracts are prepared 24 to 48 h later and assayed for reporter gene activity as described by the manufacturer (eg. for luciferase activity: Promega Corporation). Compounds reducing reporter gene activity more than 50% compared to solvent alone treated cells are considered as hits. In parallel, toxicity can be assessed for instance by the yellow tetrazolium salt cell proliferation assay (MTT) assay.

βCatenin-BCL9 = assay: ELISA based protein-protein interaction assay; assay type: binding; conditions: inhibition class of the βCatenin-BCL9 interaction
Description: In vitro ELISA-based Protein-protein Interaction Assay
Protein Production in Bacteria
cDNAs including the binding domains of Lgs and βCatenin were fused downstream of glutathione-S-transferase (GST) cDNA in pGEX-4T inducible bacterial expression vector (Pharmacia). Fusion proteins were produced in BL21 bacteria (e.g. Stratagene) following manufacturer's recommendation.
To isolate the produced fusions protein bacteria were lysed in sonication buffer (10 mM Tris HCl pH 8.0, 150 mM NaCl, 1 mM EDTA, 1.5% sarkosyl, 2% Triton-X-100, 1 mM DTT and protease inhibitors), followed by short sonication on ice (e.g. 3 times 20 seconds at middle power) and centrifugation. Cleared supernatants were incubated under gentle rotation with glutathione beads (Amersham Pharmacia) for 2 hrs at 4° C. Finally, beads were washed several time in washing buffer (20 mM Tris pH 8.0, 200 mM NaCl, 1 mM EDTA, 1 mM DTT, 1 mM MgCl2, 0.5% NP40), and stored in storage buffer (20 mM Tris pH 8.0, 200 mM NaCl, 1 mM EDTA, 1 mM DTT, 1 mM MgCl2, 10% glycerol, 0.5% NP40, and proteinase inhibitors). The quality of the preparations was checked by SDS-gel electrophoresis by standard methods well known by persons skilled in the art. […]

## O=[N+]([O-])c1ccc(N/N=C/c2ccc(O)c(O)c2)c(S(=O)(=O)Nc2ccccc2Cl)c1 [TGC0008709]
Wnt pathway
  CA: 4 (61-80% inhibition)
βCatenin-BCL9
  ELISA: 3.5

## O=[N+]([O-])c1ccc(N/N=C/c2cc(Cl)cc(Cl)c2O)c(S(=O)(=O)Nc2ccccc2Cl)c1 [TGC0010527]
Wnt pathway
  CA: 4.5
βCatenin-BCL9
  ELISA: 3 (41-60% inhibition)

## O=[N+]([O-])c1ccc(N/N=C/c2cc(Cl)cc(Cl)c2)c(S(=O)(=O)Nc2ccccc2Cl)c1 [TGC0010536]
Wnt pathway
  CA: 5 (81-100% inhibition)
βCatenin-BCL9
  ELISA: 2 (21-40% inhibition)

## O=[N+]([O-])c1ccc(N/N=C/c2cccc(Oc3ccccc3)c2)c(S(=O)(=O)Nc2ccccc2Cl)c1 [TGC0010583]
Wnt pathway
  CA: 4 (61-80% inhibition)
βCatenin-BCL9
  ELISA: 2 (21-40% inhibition)

## Cc1ncc(CO)c(/C=N/Nc2ccc([N+](=O)[O-])cc2S(=O)(=O)Nc2ccccc2Cl)c1O [TGC0010626]
Wnt pathway
  CA: 4.5
βCatenin-BCL9
  ELISA: 3 (41-60% inhibition)

## O=[N+]([O-])c1ccc(NN=C(Cc2ccccc2)Cc2ccccc2)c(S(=O)(=O)Nc2ccccc2Cl)c1 [TGC0010661]
Wnt pathway
  CA: 3 (41-60% inhibition)
βCatenin-BCL9
  ELISA: 2 (21-40% inhibition)

## O=C1Nc2ccccc2/C1=N/Nc1ccc([N+](=O)[O-])cc1S(=O)(=O)Nc1ccccc1Cl [TGC0010663]
βCatenin-BCL9
  ELISA: 2.5

## CCN1C(=O)/C(=N\Nc2ccc([N+](=O)[O-])cc2S(=O)(=O)Nc2ccccc2Cl)c2ccccc21 [TGC0010665]
Wnt pathway
  CA: 4 (61-80% inhibition)
βCatenin-BCL9
  ELISA: 2 (21-40% inhibition)

## Cc1cc(/C=N\Nc2ccc([N+](=O)[O-])cc2S(=O)(=O)Nc2ccccc2Cl)c(C)n1-c1ccc(Cl)cc1 [TGC0010673]
Wnt pathway
  CA: 4.5
βCatenin-BCL9
  ELISA: 1 (0-20% inhibition)

## Cc1nn(-c2ccc(F)cc2)c(Cl)c1/C=N\Nc1ccc([N+](=O)[O-])cc1S(=O)(=O)Nc1ccccc1Cl [TGC0010674]
βCatenin-BCL9
  ELISA: 2.5

## O=S(=O)(Nc1ccccc1Cl)c1ccccc1Cl [TGC0011155]
βCatenin-BCL9
  ELISA: 1 (0-20% inhibition)

## O=S(=O)(Nc1ccccc1Cl)c1ccccc1Br [TGC0011157]
βCatenin-BCL9
  ELISA: 1 (0-20% inhibition)

## O=S(=O)(Nc1ccccc1Cl)c1cccc(Br)c1 [TGC0011158]
βCatenin-BCL9
  ELISA: 1 (0-20% inhibition)

## CC(=O)Nc1ccc(/C=N/Nc2ccc([N+](=O)[O-])cc2S(=O)(=O)Nc2ccccc2Cl)cc1 [TGC0011358]
Wnt pathway
  CA: 3 (41-60% inhibition)
βCatenin-BCL9
  ELISA: 1.5

## O=[N+]([O-])c1ccc(N/N=C/c2ccc(O)cc2)c(S(=O)(=O)Nc2ccccc2Cl)c1 [TGC0011359]
Wnt pathway
  CA: 3 (41-60% inhibition)
βCatenin-BCL9
  ELISA: 3 (41-60% inhibition)

## COc1cc(Cl)cc(/C=N/Nc2ccc([N+](=O)[O-])cc2S(=O)(=O)Nc2ccccc2Cl)c1OCC(=O)O [TGC0011360]
βCatenin-BCL9
  ELISA: 4.5

## CC/C=N/Nc1ccc([N+](=O)[O-])cc1S(=O)(=O)Nc1ccccc1Cl [TGC0011361]
Wnt pathway
  CA: 3.5
βCatenin-BCL9
  ELISA: 1 (0-20% inhibition)

## O=[N+]([O-])c1ccc(N/N=C/c2ccccn2)c(S(=O)(=O)Nc2ccccc2Cl)c1 [TGC0011401]
Wnt pathway
  CA: 4 (61-80% inhibition)
βCatenin-BCL9
  ELISA: 1.5

## O=[N+]([O-])c1ccc(N/N=C/c2cccnc2)c(S(=O)(=O)Nc2ccccc2Cl)c1 [TGC0011402]
Wnt pathway
  CA: 4 (61-80% inhibition)
βCatenin-BCL9
  ELISA: 2 (21-40% inhibition)

## O=[N+]([O-])c1ccc(N/N=C/c2ccncc2)c(S(=O)(=O)Nc2ccccc2Cl)c1 [TGC0011403]
Wnt pathway
  CA: 4 (61-80% inhibition)
βCatenin-BCL9
  ELISA: 2 (21-40% inhibition)

## O=[N+]([O-])c1ccc(N/N=C/c2ccc(CN3CCOCC3)cc2)c(S(=O)(=O)Nc2ccccc2Cl)c1 [TGC0011404]
Wnt pathway
  CA: 4 (61-80% inhibition)
βCatenin-BCL9
  ELISA: 3 (41-60% inhibition)

## O=[N+]([O-])c1ccc(N/N=C/c2ccnc3ccccc23)c(S(=O)(=O)Nc2ccccc2Cl)c1 [TGC0011405]
Wnt pathway
  CA: 4.5

## O=[N+]([O-])c1ccc(N/N=C/c2ccc(Oc3cccnc3)cc2)c(S(=O)(=O)Nc2ccccc2Cl)c1 [TGC0011406]
Wnt pathway
  CA: 4 (61-80% inhibition)

## O=[N+]([O-])c1ccc(N/N=C/c2ccccc2-c2cccnc2)c(S(=O)(=O)Nc2ccccc2Cl)c1 [TGC0011409]
Wnt pathway
  CA: 4.5
βCatenin-BCL9
  ELISA: 3.5

## O=[N+]([O-])c1ccc(N/N=C/c2cccc(CN3CCOCC3)c2)c(S(=O)(=O)Nc2ccccc2Cl)c1 [TGC0011419]
Wnt pathway
  CA: 3 (41-60% inhibition)
βCatenin-BCL9
  ELISA: 1.5

## O=[N+]([O-])c1ccc(N/N=C/c2cccc(OCCN3CCOCC3)c2)c(S(=O)(=O)Nc2ccccc2Cl)c1 [TGC0011420]
Wnt pathway
  CA: 2 (21-40% inhibition)
βCatenin-BCL9
  ELISA: 1 (0-20% inhibition)

## O=[N+]([O-])c1ccc(N/N=C/c2ccc(Br)cc2)c(S(=O)(=O)Nc2ccccc2Cl)c1 [TGC0011421]
Wnt pathway
  CA: 4 (61-80% inhibition)
βCatenin-BCL9
  ELISA: 2.5

## CN1CCN(Cc2ccc(/C=N/Nc3ccc([N+](=O)[O-])cc3S(=O)(=O)Nc3ccccc3Cl)cc2)CC1 [TGC0011438]
Wnt pathway
  CA: 3 (41-60% inhibition)
βCatenin-BCL9
  ELISA: 1 (0-20% inhibition)

## N#Cc1ccc(Cl)c(NS(=O)(=O)c2ccccc2Br)c1 [TGC0011492]
Wnt pathway
  CA: 1 (0-20% inhibition)
βCatenin-BCL9
  ELISA: 1 (0-20% inhibition)

## O=S(=O)(Nc1ccccc1Cl)c1ccc(Cl)c(NS(=O)(=O)c2ccccc2Br)c1 [TGC0011493]
Wnt pathway
  CA: 1 (0-20% inhibition)
βCatenin-BCL9
  ELISA: 1 (0-20% inhibition)

## COC(=O)c1ccc(Cl)c(NS(=O)(=O)c2ccccc2Br)c1 [TGC0011494]
Wnt pathway
  CA: 1 (0-20% inhibition)
βCatenin-BCL9
  ELISA: 1 (0-20% inhibition)

## O=S(=O)(Nc1cc(S(=O)(=O)N2CCOCC2)ccc1Cl)c1ccccc1Br [TGC0011498]
Wnt pathway
  CA: 1 (0-20% inhibition)
βCatenin-BCL9
  ELISA: 1 (0-20% inhibition)

## COC(=O)c1ccc(NS(=O)(=O)c2ccccc2Br)c(Cl)c1 [TGC0011499]
Wnt pathway
  CA: 1 (0-20% inhibition)
βCatenin-BCL9
  ELISA: 1 (0-20% inhibition)

## CC(=O)Nc1ccc(Cl)c(NS(=O)(=O)c2ccccc2Br)c1 [TGC0011502]
Wnt pathway
  CA: 1 (0-20% inhibition)
βCatenin-BCL9
  ELISA: 1 (0-20% inhibition)

## C[n+]1cccc(/C=N/Nc2ccc([N+](=O)[O-])cc2S(=O)(=O)Nc2ccccc2Cl)c1.[I-] [TGC0011513]
Wnt pathway
  CA: 1 (0-20% inhibition)

## C[n+]1ccccc1/C=N/Nc1ccc([N+](=O)[O-])cc1S(=O)(=O)Nc1ccccc1Cl.[I-] [TGC0011514]
Wnt pathway
  CA: 1 (0-20% inhibition)
βCatenin-BCL9
  ELISA: 1 (0-20% inhibition)

## COC(=O)c1ccc(C(=O)NNc2ccc([N+](=O)[O-])cc2S(=O)(=O)Nc2ccccc2Cl)cc1 [TGC0011562]
Wnt pathway
  CA: 1.5
βCatenin-BCL9
  ELISA: 2 (21-40% inhibition)

## COc1ccc(/C=N/Nc2ccc([N+](=O)[O-])cc2S(=O)(=O)Nc2ccccc2Cl)cc1OC [TGC0011564]
Wnt pathway
  CA: 3.5
βCatenin-BCL9
  ELISA: 1 (0-20% inhibition)

## Cn1cncc1C#Cc1ccccc1S(=O)(=O)Nc1ccccc1Cl [TGC0012268]
Wnt pathway
  CA: 2.5

## CC(C)C/C=N/Nc1ccc([N+](=O)[O-])cc1S(=O)(=O)Nc1ccccc1Cl [TGC0012273]
Wnt pathway
  CA: 3.5

## CCCCCC#C/C=N/Nc1ccc([N+](=O)[O-])cc1S(=O)(=O)Nc1ccccc1Cl [TGC0012276]
Wnt pathway
  CA: 4.5
